Species: Rattus norvegicus
Assay: DrugMatrix - Regimen: Daily Repeat
Format: toxicity, organism-based, Sprague-Dawley
Parameters: regimen Daily Repeat, gender Male, age 6-8 weeks
Settings: in vivo, po, route oral GAVAGE, vehicle 100 % WATER; for ERYTHROCYTE COUNT / HEMATOCRIT / HEMOGLOBIN / LEUKOCYTE COUNT / MEAN CORPUSCULAR HEMOGLOBIN / MEAN CORPUSCULAR HEMOGLOBIN CONCENTRATION / MEAN CORPUSCULAR VOLUME: tissue Blood; for ALKALINE PHOSPHATASE / ASPARTATE AMINOTRANSFERASE / BLOOD UREA NITROGEN / CARBON DIOXIDE / CHLORIDE / CHOLESTEROL / CREATINE PHOSPHOKINASE / CREATININE / GLUCOSE / LACTATE DEHYDROGENASE / LIPASE / PHOSPHORUS / POTASSIUM / SODIUM / TOTAL BILIRUBIN / TOTAL PROTEIN / URIC ACID: tissue Plasma
[1] = 0 mg/kg, 72 h, dose level Control, time 3 day
[2] = 0 mg/kg, 120 h, dose level Control, time 5 day
[3] = 58 mg/kg, 72 h, dose level Low, time 3 day
[4] = 58 mg/kg, 120 h, dose level Low, time 5 day

C#Cc1cccc(Nc2ncnc3cc(OCCOC)c(OCCOC)cc23)c1 [ERLOTINIB]
ERYTHROCYTE COUNT [1]: 6.09 x10E6/uL | HEMATOCRIT [1]: 42.62% | HEMOGLOBIN [1]: 13.07 G/DL | LEUKOCYTE COUNT [1]: 13.95 x10E3/uL | MEAN CORPUSCULAR HEMOGLOBIN [1]: 21.47 pg | MEAN CORPUSCULAR HEMOGLOBIN CONCENTRATION [1]: 30.62 G/DL | MEAN CORPUSCULAR VOLUME [1]: 70.05 fL | ALKALINE PHOSPHATASE [1]: 369 u/L | ASPARTATE AMINOTRANSFERASE [1]: 86.17 u/L | BLOOD UREA NITROGEN [1]: 16.33 mg/dL | CARBON DIOXIDE [1]: 37.33 mmol/L | CHLORIDE [1]: 104.83 MEQ/L | CHOLESTEROL [1]: 79.83 mg/dL | CREATINE PHOSPHOKINASE [1]: 392.83 u/L | CREATININE [1]: 0.68 mg/dL | GLUCOSE [1]: 153.33 mg/dL | LACTATE DEHYDROGENASE [1]: 426.17 u/L | LIPASE [1]: 11.67 u/L | PHOSPHORUS [1]: 11 mg/dL | POTASSIUM [1]: 6.72 MEQ/L | SODIUM [1]: 146.67 MEQ/L | TOTAL BILIRUBIN [1]: 0.55 mg/dL | TOTAL PROTEIN [1]: 6.32 G/DL | URIC ACID [1]: 0.0167 mg/dL | ERYTHROCYTE COUNT [2]: 6.93 x10E6/uL | HEMATOCRIT [2]: 46.82% | HEMOGLOBIN [2]: 14.23 G/DL | LEUKOCYTE COUNT [2]: 13.43 x10E3/uL | MEAN CORPUSCULAR HEMOGLOBIN [2]: 20.55 pg | MEAN CORPUSCULAR HEMOGLOBIN CONCENTRATION [2]: 30.38 G/DL | MEAN CORPUSCULAR VOLUME [2]: 67.62 fL | ALKALINE PHOSPHATASE [2]: 417.83 u/L | ASPARTATE AMINOTRANSFERASE [2]: 83 u/L | BLOOD UREA NITROGEN [2]: 15.33 mg/dL | CARBON DIOXIDE [2]: 38.83 mmol/L | CHLORIDE [2]: 98.17 MEQ/L | CHOLESTEROL [2]: 66.83 mg/dL | CREATINE PHOSPHOKINASE [2]: 383.17 u/L | CREATININE [2]: 0.72 mg/dL | GLUCOSE [2]: 156.5 mg/dL | LACTATE DEHYDROGENASE [2]: 519.67 u/L | LIPASE [2]: 4.83 u/L | PHOSPHORUS [2]: 11.07 mg/dL | POTASSIUM [2]: 6.03 MEQ/L | SODIUM [2]: 138 MEQ/L | TOTAL BILIRUBIN [2]: 0.55 mg/dL | TOTAL PROTEIN [2]: 6.3 G/DL | URIC ACID [2]: 0.0833 mg/dL | ERYTHROCYTE COUNT [3]: 7.23 x10E6/uL | HEMATOCRIT [3]: 47.6% | HEMOGLOBIN [3]: 14.6 G/DL | LEUKOCYTE COUNT [3]: 17.02 x10E3/uL | MEAN CORPUSCULAR HEMOGLOBIN [3]: 20.2 pg | MEAN CORPUSCULAR HEMOGLOBIN CONCENTRATION [3]: 30.77 G/DL | MEAN CORPUSCULAR VOLUME [3]: 265.73 fL | ALKALINE PHOSPHATASE [3]: 184.67 u/L | ASPARTATE AMINOTRANSFERASE [3]: 86.33 u/L | BLOOD UREA NITROGEN [3]: 16 mg/dL | CARBON DIOXIDE [3]: 39 mmol/L | CHLORIDE [3]: 107.67 MEQ/L | CHOLESTEROL [3]: 93.67 mg/dL | CREATINE PHOSPHOKINASE [3]: 293 u/L | CREATININE [3]: 0.73 mg/dL | GLUCOSE [3]: 141.33 mg/dL | LACTATE DEHYDROGENASE [3]: 441.67 u/L | LIPASE [3]: 21.33 u/L | PHOSPHORUS [3]: 10 mg/dL | POTASSIUM [3]: 6.7 MEQ/L | SODIUM [3]: 148.67 MEQ/L | TOTAL BILIRUBIN [3]: 0.73 mg/dL | TOTAL PROTEIN [3]: 5.13 G/DL | URIC ACID [3]: 0 mg/dL | ERYTHROCYTE COUNT [4]: 7.1 x10E6/uL | HEMATOCRIT [4]: 46.07% | HEMOGLOBIN [4]: 13.83 G/DL | LEUKOCYTE COUNT [4]: 18.86 x10E3/uL | MEAN CORPUSCULAR HEMOGLOBIN [4]: 19.47 pg | MEAN CORPUSCULAR HEMOGLOBIN CONCENTRATION [4]: 29.97 G/DL | MEAN CORPUSCULAR VOLUME [4]: 64.9 fL | ALKALINE PHOSPHATASE [4]: 222 u/L | ASPARTATE AMINOTRANSFERASE [4]: 105.33 u/L | BLOOD UREA NITROGEN [4]: 14.67 mg/dL | CARBON DIOXIDE [4]: 38.67 mmol/L | CHLORIDE [4]: 100.33 MEQ/L | CHOLESTEROL [4]: 81.33 mg/dL | CREATINE PHOSPHOKINASE [4]: 332 u/L | CREATININE [4]: 0.73 mg/dL | GLUCOSE [4]: 135 mg/dL | LACTATE DEHYDROGENASE [4]: 477.67 u/L | LIPASE [4]: 16.67 u/L | PHOSPHORUS [4]: 11.53 mg/dL | POTASSIUM [4]: 6.07 MEQ/L | SODIUM [4]: 141 MEQ/L | TOTAL BILIRUBIN [4]: 0.5 mg/dL | TOTAL PROTEIN [4]: 5.57 G/DL | URIC ACID [4]: 0.1 mg/dL
